Measurements published in US20200199692A1, “LACTIC BACTERIA AND THE USE THEREOF FOR THE PREVENTIVE, INHIBITORY AND/OR REDUCTIVE TREATMENT OF THE FORMATION OF BACTERIAL BIOFILMS” (PROBIOTICAL S.P.A., priority 2016, published 2020).
≈ marks a conversion by molar mass, not a printed value. Read-outs that look alike come from different tables or passages of the source.

Tests used:
[1] = tested on: Lactobacillus plantarum LMC-1 ID 1952 DSM 32252; assay: Antibiotic resistance profile (E-test, ABBiodisk); format: cell-based
[2] = tested on: Commercial Lactobacillus; assay: Antibiotic resistance profile (E-test, ABBiodisk); format: cell-based
[3] = tested on: Commercial Bifidobacterium; assay: Antibiotic resistance profile (E-test, ABBiodisk); format: cell-based
[4] = tested on: Lactobacillus paracasei LMC-4 ID 1953 DSM 32254; assay: Antibiotic resistance profile (E-test, ABBiodisk); format: cell-based
[5] = tested on: Lactobacillus paracasei LMC-8 ID 1954 DSM 32258; assay: Antibiotic resistance profile (E-test, ABBiodisk); format: cell-based
[6] = tested on: Lactobacillus plantarum; conditions: Table 4 (L. plantarum); Linezolid from EFSA 2005, Quinupristin/Dalfopristin from EFSA 2008; cited from earlier work
[7] = tested on: Lactobacillus paracasei; conditions: Tables 8 and 12 (L. paracasei); Linezolid from EFSA 2005, Quinupristin/Dalfopristin from EFSA 2008; cited from earlier work
[8] = Lactiplantibacillus plantarum, DSM32252, Etest strips in agar, strain Lactobacillus plantarum LMC-1 ID 1952 DSM 32252, read-out: MIC
[9] = Etest strips in agar, Commercial Lactobacillus reference strain, read-out: MIC
[10] = Etest strips in agar, Commercial Bifidobacterium reference strain, read-out: MIC
[11] = Lacticaseibacillus paracasei, DSM32254, Etest strips in agar, strain Lactobacillus paracasei LMC-4 ID 1953 DSM 32254, read-out: MIC
[12] = Lacticaseibacillus paracasei, DSM32258, Etest strips in agar, strain Lactobacillus paracasei LMC-8 ID 1954 DSM 32258, read-out: MIC
[13] = Etest strips in agar, strain Lactobacillus plantarum LMC-1 ID 1952 DSM 32252
[14] = Etest strips in agar, Commercial Lactobacillus reference strain
[15] = Etest strips in agar, Commercial Bifidobacterium reference strain
[16] = Etest strips in agar, strain Lactobacillus paracasei LMC-4 ID 1953 DSM 32254
[17] = Etest strips in agar, strain Lactobacillus paracasei LMC-8 ID 1954 DSM 32258
[18] = Lacticaseibacillus paracasei, DSM32254
[19] = Lacticaseibacillus paracasei, DSM32258

Compound | MIC [1, 8] | MIC [2, 9] | MIC [3, 10] | MIC [4, 11] | MIC [5, 12] | EFSA Limit 2012 [6] | EFSA Limit 2012 [7] | also measured
CC1(C)S[C@@H]2[C@H](NC(=O)[C@H](N)c3ccc(O)cc3)C(=O)N2[C@H]1C(=O)O [Amoxicillin] | 0.19 µg/mL (≈ 0.52 µM) | 0.5 µg/mL (≈ 1.37 µM) | 0.064 µg/mL (≈ 0.175 µM) | 0.25 µg/mL (≈ 0.684 µM) | 0.5 µg/mL (≈ 1.37 µM) |  |  | 
CC1(C)S[C@@H]2[C@H](NC(=O)[C@H](N)c3ccccc3)C(=O)N2[C@H]1C(=O)O [Ampicillin] | 0.032 µg/mL (≈ 0.0916 µM) | 0.5 µg/mL (≈ 1.43 µM) | 0.016 µg/mL (≈ 0.0458 µM) | 0.094 µg/mL (≈ 0.269 µM) | 0.38 µg/mL (≈ 1.09 µM) | 2 µg/mL | 4 µg/mL | 
CC[C@H]1OC(=O)[C@H](C)[C@@H](O[C@H]2C[C@@](C)(OC)[C@@H](O)[C@H](C)O2)[C@H](C)[C@@H](O[C@@H]2O[C@H](C)C[C@H](N(C)C)[C@H]2O)[C@](C)(O)C[C@@H](C)CN(C)[C@H](C)[C@@H](O)[C@]1(C)O [Azithromycin] | 2 µg/mL (≈ 2.67 µM) | 0.38 µg/mL (≈ 0.507 µM) | 0.75 µg/mL (≈ 1 µM) | 0.5 µg/mL (≈ 0.668 µM) | 0.75 µg/mL (≈ 1 µM) |  |  | 
CO[C@@]1(NC(=O)Cc2cccs2)C(=O)N2C(C(=O)O)=C(COC(N)=O)CS[C@@H]21 [Cefoxitin] | 64 µg/mL (≈ 150 µM) | > 256 µg/mL | 1 µg/mL (≈ 2.34 µM) | > 256 µg/mL | > 256 µg/mL |  |  | 
CO/N=C(\C(=O)N[C@@H]1C(=O)N2C(C(=O)O)=C(COC(N)=O)CS[C@H]12)c1ccco1 [Cefuroxime] | 0.064 µg/mL (≈ 0.151 µM) | 1.5 µg/mL (≈ 3.53 µM) | 0.25 µg/mL (≈ 0.589 µM) | 0.75 µg/mL (≈ 1.77 µM) | 1 µg/mL (≈ 2.36 µM) |  |  | 
O=C(O)c1cn(C2CC2)c2cc(N3CCNCC3)c(F)cc2c1=O [Ciprofloxacin] | > 32 µg/mL | 1 µg/mL (≈ 3.02 µM) | 4 µg/mL (≈ 12.1 µM) | 0.75 µg/mL (≈ 2.26 µM) | 1 µg/mL (≈ 3.02 µM) |  |  | 
CC[C@H]1OC(=O)[C@H](C)[C@@H](O[C@H]2C[C@@](C)(OC)[C@@H](O)[C@H](C)O2)[C@H](C)[C@@H](O[C@@H]2O[C@H](C)C[C@H](N(C)C)[C@H]2O)[C@](C)(OC)C[C@@H](C)C(=O)[C@H](C)[C@@H](O)[C@]1(C)O [Clarithromycin] | 0.25 µg/mL (≈ 0.334 µM) | 0.047 µg/mL (≈ 0.0628 µM) | 0.032 µg/mL (≈ 0.0428 µM) | 0.047 µg/mL (≈ 0.0628 µM) | 0.094 µg/mL (≈ 0.126 µM) |  |  | 
CCC[C@@H]1C[C@@H](C(=O)N[C@@H]([C@H]2O[C@H](SC)[C@H](O)[C@@H](O)[C@H]2O)[C@H](C)Cl)N(C)C1 [Clindamycin] | 2 µg/mL (≈ 4.71 µM) | 0.5 µg/mL (≈ 1.18 µM) | 0.047 µg/mL (≈ 0.111 µM) | 0.064 µg/mL (≈ 0.151 µM) | 0.094 µg/mL (≈ 0.221 µM) |  |  | 
O=C(N[C@H](CO)[C@H](O)c1ccc([N+](=O)[O-])cc1)C(Cl)Cl [Cloramphenicol] |  |  |  |  |  | 8 µg/mL | 4 µg/mL | MIC [1, 13]: 2 µg/mL (≈ 6.19 µM); MIC [2, 14]: 3 µg/mL (≈ 9.28 µM); MIC [3, 15]: 0.75 µg/mL (≈ 2.32 µM); MIC [4, 16]: 1.5 µg/mL (≈ 4.64 µM); MIC [5, 17]: 2.0 µg/mL (≈ 6.19 µM)
CC[C@H]1OC(=O)[C@H](C)[C@@H](O[C@H]2C[C@@](C)(OC)[C@@H](O)[C@H](C)O2)[C@H](C)[C@@H](O[C@@H]2O[C@H](C)C[C@H](N(C)C)[C@H]2O)[C@](C)(O)C[C@@H](C)C(=O)[C@H](C)[C@@H](O)[C@]1(C)O [Erythromycin] | 0.75 µg/mL (≈ 1.02 µM) | 0.032 µg/mL (≈ 0.0436 µM) | 0.094 µg/mL (≈ 0.128 µM) |  |  | 1 µg/mL | 1 µg/mL | MIC [4, 18]: 0.125 µg/mL (≈ 0.17 µM); MIC [5, 19]: 0.125 µg/mL (≈ 0.17 µM)
C[C@@H](O)[C@H]1C(=O)N2C(C(=O)O)=C(SCCN=CN)C[C@H]12 [Imipenem] | 0.047 µg/mL (≈ 0.157 µM) | 2 µg/mL (≈ 6.68 µM) | 0.25 µg/mL (≈ 0.835 µM) | 1.5 µg/mL (≈ 5.01 µM) | 0.75 µg/mL (≈ 2.51 µM) |  |  | 
NC[C@H]1O[C@H](O[C@H]2[C@H](O)[C@@H](O[C@H]3O[C@H](CO)[C@@H](O)[C@H](N)[C@H]3O)[C@H](N)C[C@@H]2N)[C@H](O)[C@@H](O)[C@@H]1O [Kanamycin] | 64 µg/mL (≈ 132 µM) | 128 µg/mL (≈ 264 µM) |  | 24 µg/mL (≈ 49.5 µM) | 64 µg/mL (≈ 132 µM) |  |  | 
CC(=O)NC[C@H]1CN(c2ccc(N3CCOCC3)c(F)c2)C(=O)O1 [Linezolid] | 1.5 µg/mL (≈ 4.45 µM) | 2 µg/mL (≈ 5.93 µM) | 0.38 µg/mL (≈ 1.13 µM) | 0.38 µg/mL (≈ 1.13 µM) | 1.5 µg/mL (≈ 4.45 µM) | 4 µg/mL | 4 µg/mL | 
CO[C@H]1/C=C/O[C@@]2(C)Oc3c(C)c(O)c4c(O)c(c(/C=N/N5CCN(C)CC5)c(O)c4c3C2=O)NC(=O)/C(C)=C\C=C\[C@H](C)[C@H](O)[C@@H](C)[C@@H](O)[C@@H](C)[C@H](OC(C)=O)[C@@H]1C [Rifampicin] | 0.25 µg/mL (≈ 0.304 µM) | 0.094 µg/mL (≈ 0.114 µM) | 0.094 µg/mL (≈ 0.114 µM) | 0.016 µg/mL (≈ 0.0194 µM) | 0.032 µg/mL (≈ 0.0389 µM) |  |  | 
[H]/N=C(/N)N[C@H]1[C@H](O)[C@@H](O)[C@H](O[C@@H]2O[C@@H](C)[C@](O)(C=O)[C@H]2O[C@@H]2O[C@@H](CO)[C@H](O)[C@@H](O)[C@@H]2NC)[C@@H](N/C(N)=N\[H])[C@@H]1O [Streptomycin] | 16 µg/mL (≈ 27.5 µM) | 12 µg/mL (≈ 20.6 µM) | 64 µg/mL (≈ 110 µM) | 12 µg/mL (≈ 20.6 µM) | 24 µg/mL (≈ 41.3 µM) |  | 64 µg/mL | 
CN(C)[C@@H]1C(O)=C(C(N)=O)C(=O)[C@@]2(O)C(O)=C3C(=O)c4c(O)cccc4[C@@](C)(O)[C@H]3C[C@@H]12 [Tetracycline] | 12 µg/mL (≈ 27 µM) | 0.5 µg/mL (≈ 1.13 µM) | 8 µg/mL (≈ 18 µM) | 0.19 µg/mL (≈ 0.428 µM) | 0.38 µg/mL (≈ 0.855 µM) |  |  | 
CN[C@H](CC(C)C)C(=O)N[C@H]1C(=O)N[C@@H](CC(N)=O)C(=O)N[C@H]2C(=O)N[C@H]3C(=O)N[C@H](C(=O)N[C@H](C(=O)O)c4cc(O)cc(O)c4-c4cc3ccc4O)[C@H](O)c3ccc(c(Cl)c3)Oc3cc2cc(c3O[C@@H]2O[C@H](CO)[C@@H](O)[C@H](O)[C@H]2O[C@H]2C[C@](C)(N)[C@H](O)[C@H](C)O2)Oc2ccc(cc2Cl)[C@H]1O [Vancomycin] |  |  |  |  |  |  |  | MIC ([1]; Lactiplantibacillus plantarum, DSM32252): > 256 µg/mL; MIC ([2]; Lactobacillus): > 256 µg/mL; MIC ([3]; Bifidobacterium): 0.38 µg/mL (≈ 0.262 µM); MIC [4, 18]: > 256 µg/mL; MIC [5, 19]: > 256 µg/mL
Gentamicin |  |  |  |  |  | 16 µg/mL | 32 µg/mL | MIC [1, 13]: 4 µg/mL; MIC [2, 14]: 6 µg/mL; MIC [3, 15]: 48 µg/mL; MIC [4, 16]: 2 µg/mL; MIC [5, 17]: 4 µg/mL
Quinupristin/Dalfopristin |  |  |  |  |  | 4 µg/mL | 4 µg/mL | MIC [1, 13]: 0.38 µg/mL; MIC [2, 14]: 1 µg/mL; MIC [3, 15]: 0.25 µg/mL; MIC [4, 16]: 0.094 µg/mL; MIC [5, 17]: 0.25 µg/mL
